One experiment has as its target Substance-P receptor (Homo sapiens, UniProt P25103). The experiment in a line: Inhibition of [3H]-substance P binding to human NK1 receptor expressed in chinese hamster ovary cells. In kind it is cell-based, CHO.
Another experiment relates to Mustela putorius furo. Nature of the experiment: In vivo antiemetic activity against radiation-induced emesis in ferret. Format: functional.

Some results are limits rather than exact numbers.

Chain of Substance-P receptor (P25103 whole entry): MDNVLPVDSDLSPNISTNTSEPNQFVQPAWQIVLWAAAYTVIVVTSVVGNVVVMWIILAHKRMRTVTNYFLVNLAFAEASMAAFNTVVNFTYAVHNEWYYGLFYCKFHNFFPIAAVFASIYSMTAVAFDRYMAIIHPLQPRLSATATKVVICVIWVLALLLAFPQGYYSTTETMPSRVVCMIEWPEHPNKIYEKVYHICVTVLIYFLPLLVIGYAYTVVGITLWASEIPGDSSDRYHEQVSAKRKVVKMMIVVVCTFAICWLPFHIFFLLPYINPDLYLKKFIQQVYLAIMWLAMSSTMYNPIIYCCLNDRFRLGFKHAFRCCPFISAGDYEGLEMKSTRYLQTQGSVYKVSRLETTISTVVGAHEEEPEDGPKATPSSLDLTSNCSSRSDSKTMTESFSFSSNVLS

As for `COc1ccc(-n2nnnc2C)cc1CN[C@H]1CCCN[C@H]1c1ccccc1.Cl.Cl`, the Ki at Substance-P receptor is 50.1 pM. Moreover, in the experiment with Mustela putorius furo, the ED90 was found to be 0.15 mg/kg.

As to `CCCc1nnnn1-c1ccc(OC)c(CN[C@H]2CCCN[C@H]2c2ccccc2)c1.Cl.Cl`, the affinity at Substance-P receptor corresponds to a Ki of 39.8 pM. The ED90 in the experiment on Mustela putorius furo is more than 3 mg/kg.

For `COc1ccc(-n2nnnc2N)cc1CN[C@H]1CCCN[C@H]1c1ccccc1`, on Substance-P receptor, the affinity, expressed as Ki, was 1000 pM.

`COc1ccc(-n2nnnc2S(C)(=O)=O)cc1CN[C@H]1CCCN[C@H]1c1ccccc1.Cl.Cl` showed a Ki at Substance-P receptor of 63.1 pM. In the experiment on Mustela putorius furo, this compound gave an ED90 of more than 1 mg/kg.

At Substance-P receptor, `CCN(CC)c1nnnn1-c1ccc(OC)c(CN[C@H]2CCCN[C@H]2c2ccccc2)c1` gave a Ki of 2000 pM.

Regarding `CCc1nnnn1-c1ccc(OC)c(CN[C@H]2CCCN[C@H]2c2ccccc2)c1.Cl.Cl`, the affinity on Substance-P receptor corresponds to a Ki of 50.1 pM. Besides, in the experiment on Mustela putorius furo, the ED90 amounted to 0.3 mg/kg.

Regarding `COc1ccc(-n2nnnc2SC)cc1CN[C@H]1CCCN[C@H]1c1ccccc1.Cl.Cl`, on Substance-P receptor, affinity was put at a Ki of 39.8 pM. The same compound came in with an ED90 with Mustela putorius furo of 1 mg/kg.

Regarding `COc1ccc(-n2cnnn2)cc1CN[C@H]1CCCN[C@H]1c1ccccc1.Cl.Cl`, on Substance-P receptor, the Ki was 39.8 pM. Further, in the experiment with Mustela putorius furo, the ED90 was 0.1 mg/kg.

At Substance-P receptor, `COc1ccc(-n2nnnc2-c2ccccc2)cc1CN[C@H]1CCCN[C@H]1c1ccccc1.Cl.Cl` had an inhibition constant Ki of 398 pM. In the experiment with Mustela putorius furo, this compound returned an ED90 of more than 1 mg/kg.

In the case of `COc1ccc(-n2nnnc2NC(C)=O)cc1CN[C@H]1CCCN[C@H]1c1ccccc1`, at Substance-P receptor, affinity was put at a Ki of 251 pM. This lies in the sub-nanomolar range.

Compound `COc1ccc(-n2nnnc2C2CC2)cc1CN[C@H]1CCCN[C@H]1c1ccccc1.Cl.Cl` gave an inhibition constant (Ki) on Substance-P receptor of 79.4 pM. Further, in the experiment with Mustela putorius furo, the ED90 was more than 1 mg/kg.

As to `COc1ccc(-n2nnnc2C(F)(F)F)cc1CN[C@H]1CCCN[C@H]1c1ccccc1.Cl.Cl` [VOFOPITANT DIHYDROCHLORIDE], on Substance-P receptor, the Ki is 25.1 pM. The compound further gave an ED90 in the experiment on Mustela putorius furo of 0.03 mg/kg.

As usually defined, the Ki is the dissociation constant of the complex between target and ligand, obtained from inhibition or displacement. A high value points to lower affinity.
